In US20240050389A1, “TREATMENT OF IDIOPATHIC PULMONARY FIBROSIS” (priority 2020, published 2024):

Columns and labels:
[1] = test system: primary human lung fibroblasts; test: Seahorse mitochondrial stress test (OCR) of human lung fibroblasts cultured with itaconate; type: cell-based; conditions: IPF HLFs (increased vs healthy HLFs), 24 h incubation with itaconate
[2] = test system: primary human lung fibroblasts; test: JULI-Stage proliferation assay; type: cell-based; conditions: 10 mM itaconate, over 72 h
Procedure: (§1) Primary human lung fibroblasts were seeded in 96-well plate for proliferation assay (5,000 per well) or 24-well plate for wound healing assay and serum-starved overnight prior to treatment with itaconate in complete DMEM for 48-72 hrs. For wound healing assays, a standardised scratch was applied in each well using a p10 pipette tip. Images were taken in JULI-Stage system (NanoEntek) at three to five positions per well every 30 minutes and proliferation rate or wound closure were calculated using JU LI-Stage software (NanoEntek).
(§2) Human lung fibroblasts were cultured in media alone or supplemented with itaconate and assessed after 24 h-72 h. […] To assess the ability of itaconate to limit fibrosis related functions of HLFs, proliferation and wound healing assays were carried out in the presence or absence of itaconate.

[3] = test system: primary human lung fibroblasts; test: JULI-Stage wound healing (scratch) assay; type: cell-based; conditions: healthy HLFs, 10 mM itaconate, over a 48 h period
Procedure: as §1, §2

[4] = test system: healthy human primary lung fibroblasts; test: Real-time PCR gene expression in fibroblasts cultured with itaconate; type: cell-based; conditions: healthy HLFs, 10 mM itaconate, 24 h
Excerpt: (§3) Primary human lung fibroblasts were isolated from lung resections of patients undergoing lung cancer surgery or lung transplantation performed after informed consent as approved by an external Research Ethics Committee (REC 15/SC0101) according to the Royal Brompton Hospital protocol (Royal Brompton & Harefield NHS Foundation Trust, 2016) and cultured in complete Dulbecco's modified eagle medium (10% FBS, 100 U/ml penicillin/streptomycin) (Gibco, ThermoFisher) to passage four. Human bronchial epithelial cells (HBE) were obtained from bronchial brushings during the bronchoscopy after informed consent and approved by an external Research Ethics Committee for ILD subjects (Ref. Nos. 10/H0720/12 and 15/SC0101). HBEs were cultured in bronchia.1 e thelial growth (BEGM) medium (Lonza) to passage four. MACS enriched human AM were cultured in complete RPMI (10% FBS, 100U/ml penicillin/streptomycin, Gibco, ThermoFisher) for 24 hrs. Fibroblasts and AM were cultured with 10 mM itaconate in complete medium for 24hrs prior to cell lysis in RLT buffer (QIAGEN) containing 1% 2-Mercaptoethanol (Sigma Aldrich).

[5] = Tolerability of inhaled (oropharyngeal) itaconate in naïve mice; type: in vivo; conditions: inhaled dose of 0.25 mg/kg
Procedure: FIG. 18: Exogenous itaconate is anti-fibrotic. (A-C) Total BAL count, percentage of eosinophils (B) and Percentage of neutrophils (C) of PBS or itaconate dosed mice (0.25-10 mg/kg, oropharyngeal), 24 h post administration (n=4 per group). Data presented as mean±S.D.; Significance was tested by ordinary one-way ANOVA with Sidak's multiple comparison test, **P<0.01.
In order to address whether inhaled itaconate is anti-fibrotic, it was first determined a dose of itaconate that would not provoke an inflammatory response in murine airways. […] We administered inhaled (OPN) itaconate or PBS twice a week for two weeks during the fibrotic phase (starting at day 10 post bleomycin) to WT mice (FIG. 7A); this dosing strategy is in accordance with the American Thoracic guidelines for preclinical assessment of potential therapies for IPF (Jenkins et al., 2017). Subsequently pathology, fibrosis and lung function at d21 post bleomycin were assessed.

[6] = test system: bleomycin induced pulmonary fibrosis; test: Therapeutic inhaled itaconate in bleomycin mouse model; type: in vivo; conditions: 0.25 mg/kg oropharyngeal twice a week for two weeks from day 10 post bleomycin, WT mice
Procedure: Unless otherwise stated, all mice were between 8 and 12 weeks of age. Mice were housed in specific-pathogen-free conditions and given food and water ad libitum. All procedures were approved by the United Kingdom Home Office and conducted in strict accordance with the Animals (Scientific Procedures) Act 1986. […] All surgery was performed under ketamine and sodium pentobarbital anaesthesia and all efforts were made to minimize suffering. Mice were administered either 0.05U (1U/ml solution dissolved in PBS) of bleomycin sulphate (Sigma Aldrich) or 50 μl PBS via the oropharyngeal route at day 0 and culled after 7, 21 or 42 days. For therapeutic experiments mice were administered 0.25 mg/kg (1 mM solution dissolved in PBS, 50 μl) itaconic acid (Sigma Aldrich) or PBS via the oropharyngeal route twice a week, beginning 10 days after of bleomycin administration.
Lung function measurements were performed using the Flexivent system (Scireq, Montreal, Canada). After induction of anaesthesia with an i.p. injection of Pentobarbitone (50 mg/Kg, Sigma, UK) and i.m. injection of Ketamine (200 mg/Kg) (Fortdodge Animal Health Ltd, Southampton, UK), mice were tracheotomised and attached to the Flexivent ventilator via a blunt-ended 19-gauge needle. Mice were ventilated using the following settings; tidal volume of 7 ml/Kg body weight, 150 breaths/minute; positive end-expiratory pressure approximately 2 cm H2O. Standardisation of lung volume history was done by performing two deep inflations. Subsequently, measurements of dynamic resistance, dynamic elastance and dynamic compliance were determined using the snapshot-150 perturbation, a single frequency sinusoidal waveform. Resultant data was fitted using multiple linear regression to the single compartment model to determine the above parameters.
Paraffin-embedded sections (4 μm) of lungs (apical lobe) were stained with hematoxylin/eosin (H&E) and Sirius Red. For assessment of fibrosis, the semi-quantitative Ashcroft scoring system was used as previously described (Hubner et al., 2008, Biotechniques, 44(4): 507-11). All scoring and measurements were performed by 3-5 blinded independent observers.
Total RNA was reverse transcribed into cDNA using the High Capacity cDNA Reverse Transcription kit (Life Technologies), or GoScript reverse transcription system (Promega) for AMs, according to manufacturer's instructions. Real-time PCR was performed using fast-qPCR mastermix (Life technologies) on a Viia-7 instrument (Applied Biosciences) with Taqman primers for murine acod1, col-1α1, col3α1, col4α1, fn1, mmp2 or human acod1, cd163, fn1, IL-16, mmp1, mmp9 using actb (Life Technologies) as housekeeping gene.

[7] = test system: AMs from IPF patients; test: Culture of AMs from IPF patients with itaconate; type: cell-based, human; conditions: AMs from IPF patients cultured with itaconate
Excerpt: as §3
1×10^7 BAL cells were stained with anti-CD206 (Biolegend) and Human TruStain FcX block (Biolegend) for 15 minutes at 4° C. in 0.5% FBS/2 mM EDTA in PBS prior to incubation with MACS anti-Cy7 microbeads (Miltenyi Biotec) for 15 minutes at 4° C. […]

C=C(CC(=O)O)C(=O)O [itaconate, 2-methylidenebutanedioic acid]
maximal respiration [1]: ameliorated | spare respiratory capacity [1]: ameliorated | proliferative capacity ([2]; HLFs from IPF patients): significantly reduced | proliferative capacity ([2]; HLFs from healthy donors): significantly reduced | ability to close a standardized wound [3]: decreased | gene expression of FN-1 [4]: downregulated | gene expression of IL-1β [4]: downregulated | tolerability (no inflammatory response in murine airways) ([5]; repeated oropharyngeal administration, naïve mice (data not shown)): well tolerated | tolerability (no inflammatory response in murine airways) ([5]; single oropharyngeal administration, naïve mice): well tolerated | Ashcroft score based on Sirius red staining ([6]; d21): significantly ameliorated | expression of Col4α1 (lung homogenate) ([6]; d21): significantly ameliorated | expression of Fn1 (lung homogenate) ([6]; d21): significantly ameliorated | lung airway compliance ([6]; d21, FlexiVent): significantly ameliorated | lung airway elastance ([6]; d21, FlexiVent): significantly ameliorated | pro-fibrotic and pro-inflammatory pathways [7]: inhibits
